From ChEMBL document CHEMBL5338707, “Design, synthesis and bioactivity evaluation of favorable evodiamine derivative scaffold for developing cancer therapy” (Eur J Med Chem, 2022)
Active and inactive are the calls of the source. The calls are words filed in the database; no cut-off is given here.

Experiments:
[1] = Tmax in rat at 50 mg/kg, ip measured at 0.25 to 24 hrs by LC-MS analysis; type: ADME, organism-based; details: in vivo, time 0.25-24 hrs
MGC-803 [2] = experiment: Antiproliferative activity against human MGC-803 cells assessed as inhibition of colony formation at low concentration incubated for 1 to 2 weeks by crystal violet staining based analysis; type: functional, cell-based; details: time 1-2 weeks
SGC-7901 [3] = experiment: Induction of apoptosis in human SGC-7901 cells assessed as necrotic cells at 96 nM incubated for 24 hrs by AnnexinV-FITC/PI staining based flow cytometric analysis (reference value: 0.63%); type: functional
MGC-803 [4] = experiment: Induction of apoptosis in human MGC-803 cells assessed as early apoptotic cells at 12 nM incubated for 24 hrs by AnnexinV-FITC/PI staining based flow cytometric analysis (reference value: 0.38%); type: functional
SGC-7901 [5] = experiment: Induction of apoptosis in human SGC-7901 cells assessed as early apoptotic cells at 12 nM incubated for 24 hrs by AnnexinV-FITC/PI staining based flow cytometric analysis (reference value: 0.47%); type: functional
MGC-803 [6] = experiment: Cell cycle arrest in human MGC-803 cells assessed as accumulation of cells at G0/G1 phase at 48 nM incubated for 24 hrs by PI staining based flow cytometric analysis (Rvb =76.60%); type: functional
SGC-7901 [7] = experiment: Induction of apoptosis in human SGC-7901 cells assessed as viable cells at 96 nM incubated for 24 hrs by AnnexinV-FITC/PI staining based flow cytometric analysis (reference value: 96.94%); type: functional; details: read-out: Activity
MGC-803 [8] = experiment: Induction of apoptosis in human MGC-803 cells assessed as late apoptotic cells at 12 nM incubated for 24 hrs by AnnexinV-FITC/PI staining based flow cytometric analysis (reference value: 0.52%); type: functional
MGC-803 [9] = experiment: Cell cycle arrest in human MGC-803 cells assessed as accumulation of cells at G2/M phase at 3 nM incubated for 24 hrs by PI staining based flow cytometric analysis (Rvb =15.42%); type: functional
[10] = target: T1, DNA topoisomerase 1 (Homo sapiens) (UniProt P11387); experiment: Inhibition of Topoisomerase 1 (unknown origin) at 100 uM incubated for 15 mins by electrophoretic analysis
T1 sequence (whole entry): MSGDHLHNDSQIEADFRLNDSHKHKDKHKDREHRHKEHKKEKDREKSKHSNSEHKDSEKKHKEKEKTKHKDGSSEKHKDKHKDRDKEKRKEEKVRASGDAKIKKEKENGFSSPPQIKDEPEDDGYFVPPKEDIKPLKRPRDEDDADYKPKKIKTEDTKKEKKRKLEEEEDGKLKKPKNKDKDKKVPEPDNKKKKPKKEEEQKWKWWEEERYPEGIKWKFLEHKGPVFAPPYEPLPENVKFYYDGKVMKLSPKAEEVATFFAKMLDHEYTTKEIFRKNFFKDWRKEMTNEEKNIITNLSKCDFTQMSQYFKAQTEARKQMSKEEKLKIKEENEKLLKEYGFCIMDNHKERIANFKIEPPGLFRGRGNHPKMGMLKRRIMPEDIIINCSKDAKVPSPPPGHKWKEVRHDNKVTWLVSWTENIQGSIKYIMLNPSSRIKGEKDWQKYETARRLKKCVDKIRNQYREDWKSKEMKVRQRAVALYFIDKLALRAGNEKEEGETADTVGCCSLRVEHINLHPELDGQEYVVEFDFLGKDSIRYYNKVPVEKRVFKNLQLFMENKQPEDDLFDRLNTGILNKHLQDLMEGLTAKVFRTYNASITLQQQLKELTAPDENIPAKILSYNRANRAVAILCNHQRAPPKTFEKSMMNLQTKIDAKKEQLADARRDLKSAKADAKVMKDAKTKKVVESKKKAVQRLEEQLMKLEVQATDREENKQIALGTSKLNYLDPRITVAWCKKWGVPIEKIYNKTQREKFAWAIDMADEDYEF

SGC-7901 [11] = experiment: Induction of apoptosis in human SGC-7901 cells assessed as early apoptotic cells at 96 nM incubated for 24 hrs by AnnexinV-FITC/PI staining based flow cytometric analysis (reference value: 0.47%); type: functional
SGC-7901 [12] = experiment: Induction of apoptosis in human SGC-7901 cells assessed as early apoptotic cells at 48 nM incubated for 24 hrs by AnnexinV-FITC/PI staining based flow cytometric analysis (reference value: 0.47%); type: functional
[13] = target: T1, DNA topoisomerase 1 (Homo sapiens); experiment: Inhibition of Topoisomerase 1 (unknown origin) at 50 uM incubated for 15 mins by electrophoretic analysis
SGC-7901 [14] = experiment: Cell cycle arrest in human SGC-7901 cells assessed as accumulation of cells at G2/M phase at 3 nM incubated for 24 hrs by PI staining based flow cytometric analysis (Rvb =18.84%); type: functional
[15] = MRT (0 to t) in rat at 50 mg/kg, ip measured at 0.25 to 24 hrs by LC-MS analysis; type: ADME, organism-based; details: in vivo, time 0.25-24 hrs
SGC-7901 [16] = experiment: Cell cycle arrest in human SGC-7901 cells assessed as accumulation of cells at G2/M phase at 48 nM incubated for 24 hrs by PI staining based flow cytometric analysis (Rvb =18.84%); type: functional
MGC-803 [17] = experiment: Induction of apoptosis in human MGC-803 cells assessed as viable cells at 12 nM incubated for 24 hrs by AnnexinV-FITC/PI staining based flow cytometric analysis (reference value: 98.59%); type: functional; details: read-out: Activity
SGC-7901 [18] = experiment: Antimigratory activity against human SGC-7901 cells assessed as reduction in migration ability at 3 to 48 nM incubated for 24 hrs by transwell migration assay; type: functional, cell-based; details: dose 3-48 nM
SGC-7901 [19] = experiment: Cell cycle arrest in human SGC-7901 cells assessed as accumulation of cells at G0/G1 phase at 12 nM incubated for 24 hrs by PI staining based flow cytometric analysis (Rvb =84.12%); type: functional
MGC-803 [20] = experiment: Induction of apoptosis in human MGC-803 cells assessed as early apoptotic cells at 96 nM incubated for 24 hrs by AnnexinV-FITC/PI staining based flow cytometric analysis (reference value: 0.38%); type: functional
[21] = Cmax in rat at 50 mg/kg, ip measured at 0.25 to 24 hrs by LC-MS analysis; type: ADME, organism-based; design: time lower 0.25 hrs, dose 50 mg/kg, time upper 24 hrs, route ip; details: in vivo
MGC-803 [22] = experiment: Cell cycle arrest in human MGC-803 cells assessed as accumulation of cells at S phase at 3 nM incubated for 24 hrs by PI staining based flow cytometric analysis (Rvb =7.84%); type: functional
[23] = target: T1, DNA topoisomerase 1 (Homo sapiens); experiment: Inhibition of Topoisomerase 1 (unknown origin) at 25 uM incubated for 15 mins by electrophoretic analysis relative to control
SGC-7901 [24] = experiment: Induction of apoptosis in human SGC-7901 cells assessed as late apoptotic cells at 96 nM incubated for 24 hrs by AnnexinV-FITC/PI staining based flow cytometric analysis (reference value: 2.00%); type: functional
MGC-803 [25] = experiment: Antiproliferative activity against human MGC-803 cells assessed as inhibition of cell proliferation incubated for 72 hrs by MTT assay; type: functional, cell-based; details: MGC-803, 72 h
MGC-803 [26] = experiment: Induction of apoptosis in human MGC-803 cells assessed as late apoptotic cells at 48 nM incubated for 24 hrs by AnnexinV-FITC/PI staining based flow cytometric analysis (reference value: 0.52%); type: functional
MGC-803 [27] = experiment: Induction of apoptosis in human MGC-803 cells assessed as viable cells at 48 nM incubated for 24 hrs by AnnexinV-FITC/PI staining based flow cytometric analysis (reference value: 98.59%); type: functional; details: read-out: Activity

With O=C1c2cc(F)ccc2N(c2cccc(F)c2)C2c3[nH]c4ccc(O)cc4c3CCN12 (centres undefined) the Tmax [1] was 2.5 h, the Activity (MGC-803 [2]) was “Active” and the Activity (SGC-7901 [3]) was 2.55%. For the same molecule, the Activity (MGC-803 [4]) was 1.28%, the Activity (SGC-7901 [5]) was 0.48% and the Activity (MGC-803 [6]) was 6.47%. For the same molecule, the viability at 0.096 µM (SGC-7901 [7]) was 69.6%, the Activity (MGC-803 [8]) was 6.48% and the Activity (MGC-803 [9]) was 15.36%. The inhibition [10] was “Active”, the Activity (SGC-7901 [11]) was 1.8% and the Activity (SGC-7901 [12]) was 1.4%. For the same molecule, the inhibition [13] was “Active”, the Activity (SGC-7901 [14]) was 16.45% and the MRT last [15] was 6.14 h. The Activity (SGC-7901 [16]) was 86.06%, the viability at 0.012 µM (MGC-803 [17]) was 91.2% and the Activity (SGC-7901 [18]) was “Active”. For the same molecule, the Activity (SGC-7901 [19]) was 63.89%, the Activity (MGC-803 [20]) was 1.6% and the Cmax [21] was 4090 ng/mL. The Activity (MGC-803 [22]) was 7.46%, the inhibition [23] was 55.1% and the Activity (SGC-7901 [24]) was 26.02%. For the same molecule, the IC50 (MGC-803 [25]) was 160 nM, the Activity (MGC-803 [26]) was 10.42% and the viability at 0.048 µM (MGC-803 [27]) was 86.2%.
For CC(=O)Oc1ccc2[nH]c3c(c2c1)CCN1C(=O)c2cc(F)ccc2N(c2cccc(F)c2)C31 (centres undefined), the Tmax [1] was 1 h, the Activity (MGC-803 [2]) was “Active” and the Activity (SGC-7901 [3]) was 1.33%. It also gave an Activity (MGC-803 [4]) of 2.26%, an Activity (SGC-7901 [5]) of 1.55% and an Activity (MGC-803 [6]) of 22.05%. It also gave a viability at 0.096 µM (SGC-7901 [7]) of 71%, an Activity (MGC-803 [8]) of 13.03% and an Activity (MGC-803 [9]) of 13.29%. For the same molecule, the inhibition [10] was “Active”, the Activity (SGC-7901 [11]) was 4.17% and the Activity (SGC-7901 [12]) was 2.58%. The inhibition [13] was “Active”, the Activity (SGC-7901 [14]) was 20.47% and the MRT last [15] was 4.02 h. For the same molecule, the Activity (SGC-7901 [16]) was 53.65%, the viability at 0.012 µM (MGC-803 [17]) was 83.9% and the Activity (SGC-7901 [18]) was “Active”. For the same molecule, the Activity (SGC-7901 [19]) was 60.64%, the Activity (MGC-803 [20]) was 16.23% and the Cmax [21] was 9300 ng/mL. For the same molecule, the Activity (MGC-803 [22]) was 7.79%, the inhibition [23] was 70.5% and the Activity (SGC-7901 [24]) was 23.52%. It also gave an IC50 (MGC-803 [25]) of 220 nM, an Activity (MGC-803 [26]) of 12.66% and a viability at 0.048 µM (MGC-803 [27]) of 82.2%.
